Assays:
[1] = tested on: MC38 cells; assay: In vitro growth of MC38 cells after MS-023 treatment and washout; assay type: cell-based, mouse; settings: 5 μM for 96 hours
Protocol: (§1) Unless otherwise specified, cell lines were treated with splicing inhibitors at the indicated concentrations for 96 hours in vitro, harvested and washed three times with PBS in excess to remove all drug, and then used for downstream analyses and/or subsequent studies, including phenotyping, RNA-seq analyses, continued growth in vitro, or tumor challenge in vivo into syngeneic animals.

[2] = Peripheral blood counts after extended treatment; settings: three weeks, with or without anti-PD1
Protocol: Animals were subcutaneously engrafted on bilateral flanks with tumor cells (MC38 1×10^6, B16-F10 0.5×10^6 and LLC 0.25×10^6 cells unless otherwise specified) on day 0, and treated continuously with splicing inhibitors (MS-023 50 mg/kg i.p., indisulam 25 mg/kg i.v. or vehicle) daily for 5 of 7 weekly days starting from day +3 of tumor challenge. […] Mice were weighed weekly for weight-based drug dosing.

[3] = biological target: T1, RBM39 (Mus musculus, UniProt Q6PFH3+Q8VH51); assay: RBM39 degradation, western blot densitometry; assay type: cell-based
T1 construct: endogenous in cells; host or cells: B16-F10 (also MC38, CT26, LLC)
Protocol: (§2) Western blotting was performed as per standard techniques. Anti-RBM39 (Atlas Antibodies, Cat. HPA001591 or Bethyl laboratories, Cat. A300-291A) were used to detect RBM39 degradation. ADMA and SDMA levels were determined using antibodies from Cell Signaling Technologies (Cat. 13222S and Cat. 135225). Actin antibody (clone AC-15) was obtained from MilliporeSigma (Cat. A5441-.2ML). Densitometry of RBM39 and actin loading control was performed using ImageJ software in order to calculate RBM39 degradation IC50 values.

[4] = tested on: B16-F10, MC38, and CT26 cells; assay: In vitro growth after ex vivo indisulam treatment and drug washout; assay type: cell-based, mouse; settings: ex vivo 1 μM for four days followed by drug washout
Protocol: as §1

[5] = tested on: MHC I, MHC II, PD-L1, IFNγ receptors, TNF receptors, DR5; assay: Cell-surface marker expression after drug treatment; assay type: cell-based, mouse
[6] = tested on: B16-F10, MC38, and CT26 cells; assay: In vivo tumor challenge with ex vivo indisulam-treated cells in syngeneic mice; parameters: species or system mouse
Protocol: as §1
Unless otherwise specified, syngeneic B6 or Balb/c mice were engrafted subcutaneously on bilateral flanks with MC38, B16-F10, CT26 or LLC tumor cells at the following doses: MC38 10^6 cells, B16-F10 0.5×10^6 cells, CT26 0.25×10^6 cells, LLC 0.25×10^6 cells. Tumors were measured serially twice or three times weekly and tumor volumes were estimated by length×width×height. Animals were monitored daily for survival and weighed twice weekly. Experimental endpoints mandating euthanasia were approved by the IACUC and included: animal lethargy, severe kyphosis or evidence of pain, difficulty with ambulation or feeding, tumor ulceration>1 cm or bleeding tumor, evidence of infected tumor, tumor volumes exceeding 2.5 cm^3, or animal total body weight loss>10% from baseline.

[7] = tested on: B16-F10 cells; assay: Engraftment of indisulam-treated B16-F10 cells into hosts with immune perturbations or with B2m knockout; assay type: in vivo, mouse
Text: B16-F10, CT26.WT (CT26), and LLC cells were obtained from ATCC (Cat. CRL-6475, CRL-2638, and CRL-1642 respectively). MB49 cells were obtained from MilliporeSigma (Cat. SCC148, Burlington, Mass.); MC38 cells were obtained from Kerafast (Cat. ENH204-FP, Boston, Mass.). B16-F10 and MC38 cells expressing chicken ovalbumin (B16ova and MC38ova) were a kind gift of Jeff Ravetch (Rockefeller University, New York, N.Y.). To generate β2 microglobulin deficient cell lines for in vitro experiments, four candidate sgRNAs for mouse β2microglobulin (#1 […] (SEQ ID NO:2), #2 […] (SEQ ID NO:3), #3 […] (SEQ ID NO:4), #4 […]) (SEQ ID NO:5), or nontargeting control ([…]) (SEQ ID NO:6) were cloned into pSpCas9(BB)-2A-Puro (PX459) as previously described (Ran, F. A., et al. (2013). Genome engineering using the CRISPR-Cas9 system. Nat Protoc 8, 2281-2308, incorporated herein by reference in its entirety) and used to engineer deficient MC38, B16-F10, and CT26 cell lines via transfection using XtremeGene 9 reagent as per manufacturer's instructions (MilliporeSigma Cat. 6365809001) followed by puromycin selection at 10 μg/mL for three days. Polyclonal cell populations were obtained by flow sorting for H-2K^b/D^b and P2 microglobulin double-negative cells, and gene knockout further confirmed by stimulating a culture of these sorted cells for 48 hours with 10 U/mL mouse IFNγ and analyzing for the same markers. For in vivo experiments, lentiCas9-Blast was used to generate Cas9-expressing B16-F10 cells. […]
Unless otherwise specified, syngeneic B6 or Balb/c mice were engrafted subcutaneously on bilateral flanks with MC38, B16-F10, CT26 or LLC tumor cells at the following doses: MC38 10^6 cells, B16-F10 0.5×10^6 cells, CT26 0.25×10^6 cells, LLC 0.25×10^6 cells. Tumors were measured serially twice or three times weekly and tumor volumes were estimated by length×width×height. Animals were monitored daily for survival and weighed twice weekly. […]

[8] = biological target: T1, RBM39; assay: RBM39 protein in tissues after in vivo indisulam; settings: therapeutic indisulam doses
Protocol: as §2
Mice were weighed weekly for weight-based drug dosing.

[9] = tested on: CD8^+ T cells; assay: IFNγ ELISpot with indisulam-treated B16-F10 cells as antigen-presenting cells; assay type: cell-based, mouse; settings: B16-F10 treated with indisulam 1 μM for 96 hours
Protocol: Such cells were then non-enzymatically harvested, washed repeatedly to remove IFNγ, and irradiated to 60 Gy from a ^60Co source to inhibit growth and further upregulate MHC I. […] IFNγ ELISpot was performed as per manufacturer's instructions (BD Biosciences, Cat. 551083). Spots were imaged and quantified on an Immunospot® analyzer (Cellular Technology Limited, Cleveland, Ohio).

SMILES: CC(C)Oc1ccc(-c2c[nH]cc2CN(C)CCN)cc1 [MS-023]
- cell growth in vitro after drug washout [1]: minimal effects
- lymphocytes, neutrophils, or other peripheral blood counts [2]: negligible effects

SMILES: NS(=O)(=O)c1ccc(S(=O)(=O)Nc2cccc3c(Cl)c[nH]c23)cc1 [indisulam]
- RBM39 protein following drug removal ([3]; ex vivo 1 μM for four days followed by drug washout): sustained suppression of RBM39 protein
- DC50 ([3]; range across B16-F10, MC38, CT26, LLC cells, 24 hours, read-out: IC50 values for RBM39 degradation): 0.06 to 1 µM
- subsequent cell proliferation or apoptosis [4]: minimal effects
- cell-surface expression of MHC I, MHC II, PD-L1, or cytokine or death receptors [5]: did not change
- tumor growth following engraftment into syngeneic, immunocompetent mice ([6]; cells treated ex vivo 1 μM four days, drug washout): strikingly durable growth inhibition
- animal survival ([6]; exposure to increasing drug concentrations (CT26; 10, 100, 1000 nM, 96 hours)): improved animal survival
- growth inhibition with loss of β2-microglobulin in B16-F10 ([7]; B2m CRISPR knockout vs control B16-F10, indisulam pretreatment): rescued the growth inhibition
- in vivo growth inhibition with NK depletion ([7]; B16-F10 treated 1 μM 96 hours, NK cell depletion): did not rescue cell growth
- in vivo tumor growth inhibition in Rag2 recipients and with T cell depletion ([7]; B16-F10 treated 1 μM 96 hours, anti-CD4 and anti-CD8): rescued
- RBM39 protein in tumoral as well as immune tissues in vivo [8]: on-target RBM39 protein reduction
- antigen-specific T cell activation by indisulam-treated B16-F10 cells [9]: triggers antigen-specific T cell activation

From US20230190707A1, “COMPOSITIONS AND METHODS FOR ENHANCING CANCER IMMUNOTHERAPY” (FRED HUTCHINSON CANCER CENTER, priority 2020, published 2023)
